In patent US20130072430A1, “METHODS FOR TREATMENT OR PROPHYLAXIS OF KIDNEY OR LIVER DYSFUNCTION” (NPS PHARMACEUTICALS, INC., priority 2010, published 2013):

System: Human patients with short bowel syndrome
Test: Example 2: liver biomarkers (albumin, gamma glutamyl transferase, total bilirubin, ALT, AST, ALP) in short bowel syndrome patients, every four weeks for 24 weeks
Type: in vivo
Settings: 0.05 mg/kg/d; for Gamma Glutamyl Transferase Change from Baseline, Median / Gamma Glutamyl Transferase Observed Value, Mean / Gamma Glutamyl Transferase Observed Value, Median / ALKALINE PHOSPHATASE Change from Baseline, Median / ALT Change from Baseline, Mean / ALT Change from Baseline, Median / ALT Observed Value, Mean / ALT Observed Value, Median / AST Change from Baseline, Mean / AST Change from Baseline, Median / AST Observed Value, Mean / AST Observed Value, Median / Albumin Change from Baseline, Mean / Albumin Change from Baseline, Median / Albumin Observed Value, Mean / Albumin Observed Value, Median / Alkaline Phosphatase Change from Baseline, Mean / Alkaline Phosphatase Observed Value, Mean / Alkaline Phosphatase Observed Value, Median / Bilirubin Change from Baseline, Mean / Bilirubin Change from Baseline, Median / Bilirubin Observed Value, Mean / Bilirubin Observed Value, Median / Gamma Glutamyl Transferase Change from Baseline, Mean: n=40; for ALT >10% decrease from Baseline, % of subjects / ALT >10% decrease from Baseline, n subjects / ALT >10% increase from Baseline, % of subjects / ALT >10% increase from Baseline, n subjects / ALT Within 10% of Baseline, % of subjects / ALT Within 10% of Baseline, n subjects / AST >10% decrease from Baseline, % of subjects / AST >10% decrease from Baseline, n subjects / AST >10% increase from Baseline, % of subjects / AST >10% increase from Baseline, n subjects / AST Within 10% of Baseline, % of subjects / AST Within 10% of Baseline, n subjects / Albumin >10% decrease from Baseline, % of subjects / Albumin >10% decrease from Baseline, n subjects / Albumin >10% increase from Baseline, % of subjects / Albumin >10% increase from Baseline, n subjects / Albumin Within 10% of Baseline, % of subjects / Albumin Within 10% of Baseline, n subjects / Alkaline Phosphatase >10% decrease from Baseline, % of subjects / Alkaline Phosphatase >10% decrease from Baseline, n subjects / Alkaline Phosphatase >10% increase from Baseline, % of subjects / Alkaline Phosphatase >10% increase from Baseline, n subjects / Alkaline Phosphatase Within 10% of Baseline, % of subjects / Alkaline Phosphatase Within 10% of Baseline, n subjects / Bilirubin >10% decrease from Baseline, % of subjects / Bilirubin >10% decrease from Baseline, n subjects / Bilirubin >10% increase from Baseline, % of subjects / Bilirubin >10% increase from Baseline, n subjects / Bilirubin Within 10% of Baseline, % of subjects / Bilirubin Within 10% of Baseline, n subjects: m=40
Experimental: To further confirm the results of Example 1, a further study was conducted involving more individuals and additional diagnostic biomarkers. Human patients with short bowel syndrome were divided into two groups: a control group (43 total individuals) to receive placebo, and an experimental group (42 total individuals) to receive teduglutide at 0.05 mg/kg/day throughout the study. Patients were treated by subcutaneous injection of placebo or the appropriate dose of teduglutide. Known biomarkers of liver function were monitored every four weeks, for 24 weeks. The liver biomarkers tested included albumin, gamma glutamyl transferase, total bilirubin, ALT and AST and ALP. Before administration of placebo or teduglutide, diagnostic biomarker levels were tested to establish a baseline for each individual.
To determine the effect of GLP-2 on the levels of the diagnostic biomarkers, the average level of each biomarker was measured for the placebo and teduglutide treated groups for each visit. Furthermore, the average change from baseline was calculated using the established baseline values. For FIGS. 17-28, p-values were calculated using the t-test.
P values are provided, which were calculated for each distribution of biomarker changes for each week using the chi-squared test.

CC[C@H](C)[C@H](NC(=O)[C@H](Cc1ccccc1)NC(=O)[C@H](CC(=O)O)NC(=O)[C@H](CCCNC(=N)N)NC(=O)[C@H](C)NC(=O)[C@H](C)NC(=O)[C@H](CC(C)C)NC(=O)[C@H](CC(N)=O)NC(=O)[C@H](CC(=O)O)NC(=O)[C@H](CC(C)C)NC(=O)[C@@H](NC(=O)[C@@H](NC(=O)[C@H](CC(N)=O)NC(=O)[C@H](CCSC)NC(=O)[C@H](CCC(=O)O)NC(=O)[C@H](CC(=O)O)NC(=O)[C@H](CO)NC(=O)[C@H](Cc1ccccc1)NC(=O)[C@H](CO)NC(=O)CNC(=O)[C@H](CC(=O)O)NC(=O)CNC(=O)[C@@H](N)Cc1c[nH]cn1)[C@@H](C)O)[C@@H](C)CC)C(=O)N[C@@H](CC(N)=O)C(=O)N[C@@H](Cc1c[nH]c2ccccc12)C(=O)N[C@@H](CC(C)C)C(=O)N[C@H](C(=O)N[C@@H](CCC(N)=O)C(=O)N[C@H](C(=O)N[C@@H](CCCCN)C(=O)N[C@H](C(=O)N[C@H](C(=O)N[C@@H](CC(=O)O)C(=O)O)[C@@H](C)O)[C@@H](C)CC)[C@@H](C)O)[C@@H](C)CC [teduglutide]
Gamma Glutamyl Transferase Change from Baseline, Median (Week 2): 2.5 U/L | Gamma Glutamyl Transferase Observed Value, Mean (Week 2): 84.6 U/L | Gamma Glutamyl Transferase Observed Value, Median (Week 2): 52.5 U/L | ALT >10% decrease from Baseline, % of subjects (Week 4): (65.0%) | ALT >10% decrease from Baseline, n subjects (Week 4): 26 | ALT >10% increase from Baseline, % of subjects (Week 4): (15.0%) | ALT >10% increase from Baseline, n subjects (Week 4): 6 | ALT Within 10% of Baseline, % of subjects (Week 4): (20.0%) | ALT Within 10% of Baseline, n subjects (Week 4): 8 | AST >10% decrease from Baseline, % of subjects (Week 4): (65.0%) | AST >10% decrease from Baseline, n subjects (Week 4): 26 | AST >10% increase from Baseline, % of subjects (Week 4): (20.0%) | AST >10% increase from Baseline, n subjects (Week 4): 8 | AST Within 10% of Baseline, % of subjects (Week 4): (15.0%) | AST Within 10% of Baseline, n subjects (Week 4): 6 | Albumin >10% decrease from Baseline, % of subjects (Week 4): (7.5%) | Albumin >10% decrease from Baseline, n subjects (Week 4): 3 | Albumin >10% increase from Baseline, % of subjects (Week 4): (5.0%) | Albumin >10% increase from Baseline, n subjects (Week 4): 2 | Albumin Within 10% of Baseline, % of subjects (Week 4): (87.5%) | Albumin Within 10% of Baseline, n subjects (Week 4): 35 | Alkaline Phosphatase >10% decrease from Baseline, % of subjects (Week 4): (55.0%) | Alkaline Phosphatase >10% decrease from Baseline, n subjects (Week 4): 22 | Alkaline Phosphatase >10% increase from Baseline, % of subjects (Week 4): (5.0%) | Alkaline Phosphatase >10% increase from Baseline, n subjects (Week 4): 2 | Alkaline Phosphatase Within 10% of Baseline, % of subjects (Week 4): (40.0%) | Alkaline Phosphatase Within 10% of Baseline, n subjects (Week 4): 16 | Bilirubin >10% decrease from Baseline, % of subjects (Week 4): (47.5%) | Bilirubin >10% decrease from Baseline, n subjects (Week 4): 19 | Bilirubin >10% increase from Baseline, % of subjects (Week 4): (35.0%) | Bilirubin >10% increase from Baseline, n subjects (Week 4): 14 | Bilirubin Within 10% of Baseline, % of subjects (Week 4): (17.5%) | Bilirubin Within 10% of Baseline, n subjects (Week 4): 7 | ALKALINE PHOSPHATASE Change from Baseline, Median (Week 4): −15.5 U/L | ALT Change from Baseline, Mean (Week 4): −9.2 U/L | ALT Change from Baseline, Median (Week 4): −7 U/L | ALT Observed Value, Mean (Week 4): 34.9 U/L | ALT Observed Value, Median (Week 4): 29 U/L | AST Change from Baseline, Mean (Week 4): −3.5 U/L | AST Change from Baseline, Median (Week 4): −5 U/L | AST Observed Value, Mean (Week 4): 29.1 U/L | AST Observed Value, Median (Week 4): 26.5 U/L | Albumin Change from Baseline, Mean (Week 4): -0.7 g/L | Albumin Change from Baseline, Median (Week 4): -1 g/L | Albumin Observed Value, Mean (Week 4): 41.7 g/L | Albumin Observed Value, Median (Week 4): 42 g/L | Alkaline Phosphatase Change from Baseline, Mean (Week 4): −20.5 U/L | Alkaline Phosphatase Observed Value, Mean (Week 4): 115.8 U/L | Alkaline Phosphatase Observed Value, Median (Week 4): 101 U/L | Bilirubin Change from Baseline, Mean (Week 4): -1.10 µmol/L | Bilirubin Change from Baseline, Median (Week 4): -1.5 µmol/L | Bilirubin Observed Value, Mean (Week 4): 11.31 µmol/L | Bilirubin Observed Value, Median (Week 4): 9.55 µmol/L | Gamma Glutamyl Transferase Change from Baseline, Mean (Week 4): 1.7 U/L | Gamma Glutamyl Transferase Change from Baseline, Median (Week 4): −0.5 U/L | Gamma Glutamyl Transferase Observed Value, Mean (Week 4): 78.9 U/L | Gamma Glutamyl Transferase Observed Value, Median (Week 4): 53.5 U/L | ALT >10% decrease from Baseline, % of subjects (Week 8): (65.0%) | ALT >10% decrease from Baseline, n subjects (Week 8): 26 | ALT >10% increase from Baseline, % of subjects (Week 8): (17.5%) | ALT >10% increase from Baseline, n subjects (Week 8): 7 | ALT Within 10% of Baseline, % of subjects (Week 8): (17.5%) | ALT Within 10% of Baseline, n subjects (Week 8): 7 | AST >10% decrease from Baseline, % of subjects (Week 8): (60.0%) | AST >10% decrease from Baseline, n subjects (Week 8): 24 | AST >10% increase from Baseline, % of subjects (Week 8): (20.0%) | AST >10% increase from Baseline, n subjects (Week 8): 8 | AST Within 10% of Baseline, % of subjects (Week 8): (20.0%) | AST Within 10% of Baseline, n subjects (Week 8): 8 | Albumin >10% decrease from Baseline, % of subjects (Week 8): (2.5%) | Albumin >10% decrease from Baseline, n subjects (Week 8): 1 | Albumin >10% increase from Baseline, % of subjects (Week 8): (2.5%) | Albumin >10% increase from Baseline, n subjects (Week 8): 1 | Albumin Within 10% of Baseline, % of subjects (Week 8): (95.0%) | Albumin Within 10% of Baseline, n subjects (Week 8): 38 | Alkaline Phosphatase >10% decrease from Baseline, % of subjects (Week 8): (62.5%) | Alkaline Phosphatase >10% decrease from Baseline, n subjects (Week 8): 25 | Alkaline Phosphatase >10% increase from Baseline, % of subjects (Week 8): (5.0%) | Alkaline Phosphatase >10% increase from Baseline, n subjects (Week 8): 2 | Alkaline Phosphatase Within 10% of Baseline, % of subjects (Week 8): (32.5%) | Alkaline Phosphatase Within 10% of Baseline, n subjects (Week 8): 13 | Bilirubin >10% decrease from Baseline, % of subjects (Week 8): (50.0%) | Bilirubin >10% decrease from Baseline, n subjects (Week 8): 20 | Bilirubin >10% increase from Baseline, % of subjects (Week 8): (25.0%) | Bilirubin >10% increase from Baseline, n subjects (Week 8): 10 | Bilirubin Within 10% of Baseline, % of subjects (Week 8): (25.0%) | Bilirubin Within 10% of Baseline, n subjects (Week 8): 10 | ALKALINE PHOSPHATASE Change from Baseline, Median (Week 8): −18.5 U/L | ALT Change from Baseline, Mean (Week 8): −10.2 U/L | ALT Change from Baseline, Median (Week 8): −5.5 U/L | ALT Observed Value, Mean (Week 8): 33.9 U/L | ALT Observed Value, Median (Week 8): 26 U/L | AST Change from Baseline, Mean (Week 8): −5.1 U/L | AST Change from Baseline, Median (Week 8): −5 U/L | AST Observed Value, Mean (Week 8): 27.5 U/L | AST Observed Value, Median (Week 8): 23.5 U/L | Albumin Change from Baseline, Mean (Week 8): -0.7 g/L | Albumin Change from Baseline, Median (Week 8): -1 g/L | Albumin Observed Value, Mean (Week 8): 41.7 g/L | Albumin Observed Value, Median (Week 8): 42 g/L | Alkaline Phosphatase Change from Baseline, Mean (Week 8): −24.3 U/L | Alkaline Phosphatase Observed Value, Mean (Week 8): 112.0 U/L | Alkaline Phosphatase Observed Value, Median (Week 8): 94 U/L | Bilirubin Change from Baseline, Mean (Week 8): -1.60 µmol/L | Bilirubin Change from Baseline, Median (Week 8): -0.95 µmol/L | Bilirubin Observed Value, Mean (Week 8): 10.81 µmol/L | Bilirubin Observed Value, Median (Week 8): 7.75 µmol/L | Gamma Glutamyl Transferase Change from Baseline, Mean (Week 8): −5.7 U/L
